Assay results from patent US4698332A, “Expectorant” (Mect Corporation, priority 1984, dated 1987).
Like-named read-outs stand apart in the source and are kept apart here.

Experiments:
palatine mucosa of frog [1] = assay: Ciliary movement of frog palatine mucosa, particle transport method (Example 3, Tables 1-3); type: cell-based, bull frog; details: for activation at 100 µg/mL: read-out: Acceleration, 10^-4 g/ml; for activation at 100 µg/mL / activation at 10 µg/mL: control = 0; for activation at 10 µg/mL: read-out: Acceleration, 10^-5 g/ml
Procedure: Bull frogs (furnished by Saitama Test Animal) weighing 300 to 450 g were used regardless of sex.
N-acetylneuraminic acid and calcium salt of N-acetylneuraminic acid (provided by Kanto Ishiseiyaku Kabushiki Kaisha), as well as acetylcholine chloride (furnished by Sigma Kabushiki Kaisha) were used as the test substances.
(§1) Mucociliary transport was measured by the particle transport method. After decapitation of a frog, the surface of the palatine mucosa was separated with minimized damage and of fixed to a cork plate in a Petri dish which was then filled with 20 ml of Ringer's solution (trishydrochloric acid). The palatine mucosa was left in this state for 30 minutes before the commencement of measurement. For measurement, the Ringer's solution was removed and fine pieces of cork (capable of passing pharmaceutical sieve No. 5 but not capable of passing No. 6) were placed on the surface of the palatine mucosa, and the time (in seconds) required for the cork piece to move 1 cm was measured. The duration of movement, i.e., moving speed, was measured also in the state immediately after the removal of the Ringer's solution or pharmaceutical solution.

ciliated cell = assay: Rotating ciliated explant (Example 9, Table 7); type: cell-based; details: for activation at 10 µg/mL: 10^-2 mg/ml (terbutaline 1-^-2 [sic]); for activation at 10 µg/mL / activation at 1 µg/mL / activation at 0.1 µg/mL: mean ± SD, > 20.0 significant, read-out: Acceleration (rotating ciliated explant); for activation at 1 µg/mL: 10^-3 mg/ml; for activation at 0.1 µg/mL: 10^-4 mg/ml
Procedure: (§2) Human ciliated cells were collected from a normal trachea by means of a branchoscope, the ciliated cells being separated by rubbing the bronchus while observing through the branchoscope, while the collection of frog cilitated cells was conducted by rubbing the palatine mucosta, without being specially careful. […] The groups of cells were transferred to a cover slip and one drop of chicken plasma (prepared by Difco Company) and one drop of 50% chicken embryo extract were added to the cells, thus forming clots. The rotary motion in the clots was recorded by means of a video recorder and the number of rotations per minute was measured. The agents were dissolved in the Medium 199 and were injected through a tube attached to a rose chamber. The state of rotary motion 5 minutes, 10 minutes and 15 minutes after the injection were recorded by means of a video recorder, and the number of revolutions was measured.
A test was conducted to examine the above-mentioned effect by using sodium salt of N-Acetylneuraminic Acid, in accordance with the same testing method as that of Example 2.

[2] = test system: ciliated cells from human airway and frog palate; assay: Rotation of ciliated cell groups (Example 4); type: cell-based
Source text: Using ciliated cells from human airway and frog palate, rotation of cell groups due to ciliary beat was observed before and after application of N-acetylneuraminic acid and calcium salt of N-acetylneuraminic acid, in order to confirm the effect of these agents on the cilitated cells.
as §2, with “measured.” for “measured. The agents were dissolved in the Medium 199 and were injected through a tube attached to a rose chamber. The state of rotary motion 5 minutes, 10 minutes and 15 minutes after the injection were recorded by means of a video recorder, and the number of revolutions was measured.”

palatine mucosa of frog [3] = assay: Mucociliary transport of frog palatine mucosa (Example 8, Table 6); type: cell-based; details: mean ± SD, over 20.0% significant, read-out: Acceleration (mucociliary transport); for activation at 100 µg/mL: 10^-1 mg/ml; for activation at 10 µg/mL: 10^-2 mg/ml; for activation at 1 µg/mL: 10^-3 mg/ml; for activation at 0.1 µg/mL: 10^-4 mg/ml
Procedure: as §1

CC(=O)OCC[N+](C)(C)C.[Cl-] [acetylcholine, acetylcholine chloride, reference compound]
Movement (palatine mucosa of frog [1]; 10^-4 g/ml, frog number 1): 21.0 s/cm | Movement (palatine mucosa of frog [1]; 10^-4 g/ml, frog number 2): 21.7 s/cm | Movement (palatine mucosa of frog [1]; 10^-4 g/ml, frog number 3): 20.7 s/cm | Movement (palatine mucosa of frog [1]; 10^-5 g/ml, frog number 1): 27.0 s/cm | Movement (palatine mucosa of frog [1]; 10^-5 g/ml, frog number 2): 29.7 s/cm | Movement (palatine mucosa of frog [1]; 10^-5 g/ml, frog number 3): 26.3 s/cm | activation at 100 µg/mL (palatine mucosa of frog [1]; frog number 1): 53.3% | activation at 100 µg/mL (palatine mucosa of frog [1]; frog number 2): 41.4% | activation at 100 µg/mL (palatine mucosa of frog [1]; frog number 3): 47.3% | activation at 10 µg/mL (palatine mucosa of frog [1]; frog number 1): 40% | activation at 10 µg/mL (palatine mucosa of frog [1]; frog number 2): 19.7% | activation at 10 µg/mL (palatine mucosa of frog [1]; frog number 3): 33.1% | activation at 10 µg/mL (ciliated cell; 5 min, 5 min after perfusion): 58.1 ± 38.1% | activation at 1 µg/mL (ciliated cell; 5 min, 5 min after perfusion): 27.8 ± 12.2% | activation at 0.1 µg/mL (ciliated cell; 5 min, 5 min after perfusion): -1.7% | activation at 10 µg/mL (ciliated cell; 10 min, 10 min after perfusion): 52 ± 32.6% | activation at 1 µg/mL (ciliated cell; 10 min, 10 min after perfusion): 10.6 ± 15% | activation at 0.1 µg/mL (ciliated cell; 10 min, 10 min after perfusion): 0.8% | activation at 10 µg/mL (ciliated cell; 0.25 h, 15 min after perfusion): 44.5 ± 22% | activation at 1 µg/mL (ciliated cell; 0.25 h, 15 min after perfusion): 20.8 ± 26.4% | activation at 0.1 µg/mL (ciliated cell; 0.25 h, 15 min after perfusion): 14.6% | Effect on rotation (ciliated cell; between 10^-3 and 10^-2 mg/ml): increase in the rotation in a certan dependency on the dose | Time of speed peak of rotary motion after application ([2]; 3×10^-3 mg/ml): ~5 min | Time of speed peak of rotary motion after application ([2]; 10^-3 mg/ml): about 10 minutes | Effect on speed of rotary motion of the cilium cells ([2]; 10^-3 mg/ml and 3×10^-3 mg/ml): the speed of rotary motion of the cilium cells is increased | Time after application at which rotary motion stopped ([2]; 10^-3 and 3×10^-3 mg/ml, both cases): 13 min | activation at 100 µg/mL (palatine mucosa of frog [3]; 5 min, 5 min after applied): 22.8 ± 26.1% | activation at 10 µg/mL (palatine mucosa of frog [3]; 5 min, 5 min after applied): 17.5 ± 14.3% | activation at 1 µg/mL (palatine mucosa of frog [3]; 5 min, 5 min after applied): 12.3 ± 8.5% | activation at 0.1 µg/mL (palatine mucosa of frog [3]; 5 min, 5 min after applied): 3 ± 7.6% | activation at 100 µg/mL (palatine mucosa of frog [3]; 10 min, 10 min after applied): 31 ± 24.9% | activation at 10 µg/mL (palatine mucosa of frog [3]; 10 min, 10 min after applied): 18.8 ± 21.1% | activation at 1 µg/mL (palatine mucosa of frog [3]; 10 min, 10 min after applied): 19.9 ± 16.8% | activation at 0.1 µg/mL (palatine mucosa of frog [3]; 10 min, 10 min after applied): 3.8 ± 15.5% | activation at 100 µg/mL (palatine mucosa of frog [3]; 0.25 h, 15 min after applied): 30.5 ± 19.5% | activation at 10 µg/mL (palatine mucosa of frog [3]; 0.25 h, 15 min after applied): 24.9 ± 25.6% | activation at 1 µg/mL (palatine mucosa of frog [3]; 0.25 h, 15 min after applied): 13.9 ± 20.5% | activation at 0.1 µg/mL (palatine mucosa of frog [3]; 0.25 h, 15 min after applied): -5.5 ± 10%
